Data: patent publication US20090143285A1, “TARGET PROTEIN AND TARGET GENE FOR DRUG DISCOVERY AND SCREENING METHOD” (REVERSE PROTEOMICS RESEARCH INSTITUTE CO., LTD., priority 2005, published 2009)
Entries after “also recorded” stand apart in the source; their conditions may differ. Where two headings read alike, the source gives them in different places.

Assays:
FLJ38531-derived protein [1] = biological target: T1, FLJ38531-derived protein (Homo sapiens, UniProt Q9BVM4); test: SEC/MS interaction analysis, FLJ38531-derived protein (hypothetical protein BC004360); type: binding
T1 construct: His-tag (N); made in house; host or cells: Escherichia coli BL21star(DE3)pLysS
T1 sequence (Q9BVM4 1-153): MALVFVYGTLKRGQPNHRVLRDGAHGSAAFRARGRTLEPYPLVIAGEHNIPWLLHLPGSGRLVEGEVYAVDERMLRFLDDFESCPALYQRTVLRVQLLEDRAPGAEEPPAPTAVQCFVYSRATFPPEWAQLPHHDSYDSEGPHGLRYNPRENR
From the text: (§1) To analyze the interactions between commonly used drugs and proteins expressed from human full-length cDNA clones while keeping both the proteins and the compounds in non-modified, non-immobilized state, size exclusion chromatography (SEC) and mass analysis were used in combination. The specific procedures are shown below.
(§2) The compound-protein mixture prepared in step 1 was subjected to chromatography using an SEC column, the compound and the protein were separated by SEC, and the compound that interacted with the bound compound or protein contained in the protein fraction was analyzed using a mass analyzer.
(§3) Protein concentrations were measured using BCA Protein Assay (PIERCE), in consideration of the purity calculated by SDS-PAGE.
Mass analysis was performed using LCQ DECA XP (Thermoelectron) or Q-TOF micro (Micromass), equipped with an ESI probe. The LC pump used was Agilent 1100 (Yokogawa Analytical Systems), and the autosampler used was HTC-PAL (CTC Analytics) equipped with a cooling stacker. The SEC column used was a micro-LC column or a 384-well spin column. […]
In the 384-well spin column method, Unifilter 100 (Whatman), packed with 10 μL (dry volume) of Bio-Gel P6 (BIO-RAD) and swollen with milliQ water, was used as the SEC column. […] The SEC spin column was mounted on an acetonitrile-aliquoted 384-well U-bottom plate and centrifuged; the SEC spin column filtrate, which is a protein fraction, was recovered in 50% acetonitrile. The protein precipitate produced by the acetonitrile was removed via centrifugation and filtration for deproteinization; the resulting filtrate was concentrated by centrifugal concentration and re-dissolved in 10 μL of 50% methanol to obtain a mass analysis sample. The mobile phase supplied to the mass analyzer was 0.1% formic acid/50% methanol solution in the positive ion mode, and 0.1% ammonia/50% methanol solution in the negative ion mode; these mobile phases were used at a flow rate of 40 μL/min. 2-μL of mass analysis samples were injected using an autosampler at 2-minute intervals; the mass spectral intensity of the compound was measured to retrieve the spectral intensity of the pharmaceutical compound contained in the SEC spin column filtrate (protein fraction eluted from SEC).

FLJ38531-derived protein [2] = biological target: T1, FLJ38531-derived protein; test: Biacore dissociation constant (KD) measurement, FLJ38531-derived protein; type: binding; details: FLJ38531-derived protein (SEQ ID NO 13)
From the text: This washing operation was repeated as required.

[3] = system: FLJXXXXX-derived proteins; test: SEC/MS spin column interaction analysis of FLJXXXXX-derived proteins and various compounds (Tables 30-1 to 30-4); type: binding, human
FLJ35914-derived protein = biological target: T2, FLJ35914-derived protein (Homo sapiens, UniProt Q9HB65, DEL362-362); test: SEC/MS interaction analysis, FLJ35914-derived protein (ELL3); type: binding; details: TSKgel super SW2000 micro-LC column (1.0 mm ID×30 mm); presence vs absence of protein; data not shown
T2 construct: His-tag (N); made in house; host or cells: Escherichia coli BL21star(DE3)pLysS
T2 sequence (Q9HB65 with tags, fused parts or gaps DEL362-362): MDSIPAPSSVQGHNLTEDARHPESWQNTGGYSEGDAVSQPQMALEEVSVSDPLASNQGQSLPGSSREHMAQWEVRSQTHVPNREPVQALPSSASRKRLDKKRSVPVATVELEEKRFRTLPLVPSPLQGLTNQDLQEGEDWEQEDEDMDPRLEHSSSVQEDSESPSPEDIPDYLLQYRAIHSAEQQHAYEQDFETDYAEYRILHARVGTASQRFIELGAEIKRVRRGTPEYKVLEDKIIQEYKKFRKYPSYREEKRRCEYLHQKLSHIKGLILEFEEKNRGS
From the text: (§4) The specific procedures are shown below.

FLJ39553-derived protein = biological target: T3, FLJ39553-derived protein (Homo sapiens, UniProt Q6P6B1, N326S); test: SEC/MS interaction analysis, FLJ39553-derived protein (hypothetical protein FLJ39553); type: binding; details: TSKgel super SW2000 micro-LC column (1.0 mm ID×30 mm); presence vs absence of protein; data not shown
T3 construct: His-tag (N); made in house; host or cells: Escherichia coli BL21star(DE3)pLysS
T3 sequence (Q6P6B1 1-374 N326S): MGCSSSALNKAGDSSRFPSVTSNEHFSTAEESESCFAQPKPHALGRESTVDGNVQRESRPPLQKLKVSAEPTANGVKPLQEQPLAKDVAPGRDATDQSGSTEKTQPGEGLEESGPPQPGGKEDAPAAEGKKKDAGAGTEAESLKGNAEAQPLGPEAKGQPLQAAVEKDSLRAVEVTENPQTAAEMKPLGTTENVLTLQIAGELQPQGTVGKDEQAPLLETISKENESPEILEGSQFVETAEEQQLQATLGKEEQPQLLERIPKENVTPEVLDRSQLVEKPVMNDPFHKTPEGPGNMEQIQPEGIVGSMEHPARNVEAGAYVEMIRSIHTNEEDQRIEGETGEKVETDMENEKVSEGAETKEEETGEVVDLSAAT
From the text: as §1, §2, §3
Mass analysis was performed using LCQ DECA XP (Thermoelectron) or Q-TOF micro (Micromass), equipped with an ESI probe. […]
In the 384-well spin column method, Unifilter 100 (Whatman), packed with 10 μL (dry volume) of Bio-Gel P6 (BIO-RAD) and swollen with milliQ water, was used as the SEC column. […] 2-μL of mass analysis samples were injected using an autosampler at 2-minute intervals; the mass spectral intensity of the compound was measured to retrieve the spectral intensity of the pharmaceutical compound contained in the SEC spin column filtrate (protein fraction eluted from SEC).

FLJ36526-derived protein = biological target: T4, FLJ36526-derived protein (Homo sapiens, UniProt Q9UNZ2, D290N/L361F); test: SEC/MS interaction analysis, FLJ36526-derived protein (NSFL1 (p97) cofactor (p47)); type: binding; details: TSKgel super SW2000 micro-LC column (1.0 mm ID×30 mm); presence vs absence of protein; data not shown
T4 construct: His-tag (N); made in house; host or cells: Escherichia coli BL21star(DE3)pLysS
T4 sequence (Q9UNZ2 1-370 D290N/L361F): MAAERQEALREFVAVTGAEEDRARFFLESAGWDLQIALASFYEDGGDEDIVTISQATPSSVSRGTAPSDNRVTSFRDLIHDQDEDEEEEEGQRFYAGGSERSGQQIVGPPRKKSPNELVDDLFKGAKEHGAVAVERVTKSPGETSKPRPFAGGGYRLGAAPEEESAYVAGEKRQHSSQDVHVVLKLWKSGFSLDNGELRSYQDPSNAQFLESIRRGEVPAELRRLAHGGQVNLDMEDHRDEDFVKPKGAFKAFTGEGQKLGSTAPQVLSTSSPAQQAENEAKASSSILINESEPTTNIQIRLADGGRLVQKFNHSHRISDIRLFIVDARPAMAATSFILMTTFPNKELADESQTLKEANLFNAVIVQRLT
From the text: as §4

Row | spectrum intensity of the compound in the SEC spin column filtrate (FLJ38531-derived protein [1]; compound 12.5 μM, protein 0 μM) | spectrum intensity of the compound in the SEC spin column filtrate (FLJ38531-derived protein [1]; compound 12.5 μM, protein 5 μM) | spectrum intensity of the compound in the SEC spin column filtrate (FLJ38531-derived protein [1]; compound 12.5 μM, protein 10 μM) | spectrum intensity of the compound in the SEC spin column filtrate (FLJ38531-derived protein [1]; compound 12.5 μM, protein 25 μM) | spectrum intensity of the compound in the SEC spin column filtrate (FLJ38531-derived protein [1]; compound 25 μM, protein 0 μM) | spectrum intensity of the compound in the SEC spin column filtrate (FLJ38531-derived protein [1]; compound 25 μM, protein 5 μM) | spectrum intensity of the compound in the SEC spin column filtrate (FLJ38531-derived protein [1]; compound 25 μM, protein 10 μM) | spectrum intensity of the compound in the SEC spin column filtrate (FLJ38531-derived protein [1]; compound 25 μM, protein 25 μM) | spectrum intensity of the compound in the SEC spin column filtrate (FLJ38531-derived protein [1]; compound 62.5 μM, protein 0 μM) | spectrum intensity of the compound in the SEC spin column filtrate (FLJ38531-derived protein [1]; compound 62.5 μM, protein 5 μM) | spectrum intensity of the compound in the SEC spin column filtrate (FLJ38531-derived protein [1]; compound 62.5 μM, protein 10 μM) | spectrum intensity of the compound in the SEC spin column filtrate (FLJ38531-derived protein [1]; compound 62.5 μM, protein 25 μM) | interaction judged from spectrum intensity of the compound in the SEC spin column filtrate (protein fraction eluted from SEC) (FLJ38531-derived protein [1]; spin column method, doses of both compound and protein varied) | Kd (FLJ38531-derived protein [2]) | Compound | FLJ No of the derived protein with which the compound was judged to exhibit a concentration-dependent interaction ([3]; SEC spin column filtrate, spectral intensity increased with doses of compound and protein) | interaction judged from mass chromatogram of the compound (elution from SEC micro-LC column) (FLJ35914-derived protein) | interaction judged from mass chromatogram of the compound (elution from SEC micro-LC column) (FLJ39553-derived protein) | interaction judged from mass chromatogram of the compound (elution from SEC micro-LC column) (FLJ36526-derived protein) | FLJ No of the derived protein with which the compound was judged to exhibit a concentration-dependent interaction [3]
1 | 59203 | 261679 | 686531 | 2048630 | 53384 | 401351 | 946518 | 2600573 | 179387 | 688076 | 1418687 | 3155516 | concentration-dependent interaction | 8.9 µM | O=C(O)c1cc(/N=N/c2ccc(S(=O)(=O)Nc3ccccn3)cc2)ccc1O [sulfasalazine] | FLJ38531 | – | – | – | –
2 | – | – | – | – | – | – | – | – | – | – | – | – | – | – | C/C1=C2N=C(/C=C3N=C(/C(C)=C4\[N-][C@@](C)([C@@H]5N=C1[C@](C)(CCC(=O)NC[C@@H](C)OP(=O)([O-])O[C@H]1[C@@H](O)[C@@H](n6cnc7cc(C)c(C)cc76)O[C@@H]1CO)[C@H]5CC(N)=O)[C@@](C)(CC(N)=O)[C@@H]4CCC(N)=O)[C@@](C)(CC(N)=O)[C@@H]\3CCC(N)=O)C(C)(C)[C@@H]/2CCC(N)=O.[Co+3].[OH-] [hydroxocobalamin] | – | there was an interaction | there was an interaction | there was an interaction | FLJ35914; also recorded: FLJ36526; also recorded: FLJ39553
